These are literature values, as cited in the PKSmart pharmacokinetics tables (Seal et al. 2025).

A word on the clearance: it is a measure of how efficiently the substance is removed, as volume per time. By half-life is commonly meant the time in which the quantity being followed falls by half. The term fraction unbound denotes free concentration divided by total concentration. In general, Vd refers to the apparent volume that relates the amount in the body to the concentration in plasma or blood.

A short description of the data set: not given per row; by the article one of three: Lombardo et al. 2013, J Clin Pharmacol 53:178, doi 10.1177/0091270012440282; 'New Drugs at FDA', novel drug approvals for 2021 and 2022 (the article's reference 43); Yap, Li, Chen 2006, J Mol Graph Model 24:383, doi 10.1016. Particulars: human; for clearance / half-life / Vd: in vivo; for fraction unbound: plasma.

For `Cc1ccc2nc(N)[nH]c(=O)c2c1Sc1ccncc1`, the clearance is 2.36 mL/min/kg.
Turning to `Cc1cc(O)c(C(=O)NC(C(=O)NC2C(=O)N3C(C(=O)O)=C(CSc4nnnn4C)CS[C@H]23)c2ccc(O)cc2)cn1` (stereo partly specified), the clearance was 0.28 mL/min/kg.
`CCC1(CCC(C)C)C(=O)NC(=O)NC1=O`: the clearance is 0.35 mL/min/kg.
Consider `NS(=O)(=O)c1cc2c(cc1Cl)N=CNS2(=O)=O`, for which the clearance is 4.5 mL/min/kg.
Turning to `CC[C@H](CO)NCCN[C@@H](CC)CO`, the clearance is 8.05 mL/min/kg.
For `COC(=O)C1C=C2CC(=O)CC[C@]2(C)[C@@]23O[C@H]2C[C@@]2(C)[C@H](CC[C@]24CCC(=O)O4)[C@@H]13` (stereo partly specified), the clearance is 2.38 mL/min/kg.
As to `C=CC[C@]1([C@H](C)C#CCC)C(=O)NC(=O)N(C)C1=O`, the clearance is 13.3 mL/min/kg.
For `NC(Cc1cc(I)c(Oc2ccc(O)c(I)c2)c(I)c1)C(=O)O` (stereo unspecified), the clearance was 0.25 mL/min/kg.
Regarding `CCCCC1(CCCC)CN(c2ccccc2)c2cc(SC)c(OCC(=O)NC(C(=O)NC(CC)C(=O)O)c3ccc(O)cc3)cc2S(=O)(=O)N1` (stereo unspecified), the half-life was 2.36 h and the fraction unbound is 0.01.
Regarding `O[P+](O)(O)C(Cl)(Cl)[P+](O)(O)O`, the clearance was 2.2 mL/min/kg.
With `O=C(CO)NCCCOc1cccc(CN2CCCCC2)c1`, the clearance is 6.73 mL/min/kg.
`COc1ccc(-n2nccn2)c(C(=O)N2CCC[C@@]2(C)c2nc3c(C)c(Cl)ccc3[nH]2)c1`: the Vd is 0.52 L/kg, the half-life is 8 h and the fraction unbound is 0.01.
As to `CS(=O)(=O)c1ccc([C@H](O)[C@@H](CO)NC(=O)C(Cl)Cl)cc1`, the clearance was 2.62 mL/min/kg.
Consider `CNC[C@@H](O)c1cccc(O)c1`, for which the clearance is 29.9 mL/min/kg.
With `CC(=O)NC(CCS)C(=O)O` (stereo unspecified), the clearance was 2.06 mL/min/kg.
Turning to `CCCN(CC)C(CC)C(=O)Nc1c(C)cccc1C` (stereo unspecified), the clearance is 15.9 mL/min/kg.
For the compound `CC1(C)C(=CC=C2CCCC(C=CC3=[N+](CCCCS(=O)(=O)O)c4ccc(S(=O)(=O)[O-])cc4C3(C)C)=C2Oc2ccc(CC(NC(=O)c3ccc(NCc4cnc5nc(N)[nH]c(=O)c5n4)cc3)C(=O)O)cc2)N(CCCCS(=O)(=O)O)c2ccc(S(=O)(=O)O)cc21` (stereo unspecified), the volume of distribution (Vd) is 0.29 L/kg and the half-life was 0.44 h.
Regarding `CON=C(C(=O)NC1C(=O)N2C(C(=O)[O-])=C(C[n+]3cccc4c3CCC4)CS[C@@H]12)c1csc(N)n1` (stereo partly specified), the clearance was 1.98 mL/min/kg.
For `Cc1ccc(C)c(OCCCC(C)(C)C(=O)O)c1`, the clearance was 1.7 mL/min/kg.
On to `Cc1cn([C@@H]2C=C[C@H](CO)O2)c(=O)[nH]c1=O`, for which the clearance was 8.24 mL/min/kg.
Take `NS(=O)(=O)c1cc(-c2nn[nH]n2)c(NCc2cccs2)cc1Cl`: the clearance was 1.29 mL/min/kg.
Take `CCCN[C@@H]1CCc2nc(N)sc2C1`: the clearance was 8.2 mL/min/kg.
For the compound `CCC[C@H](C)[C@@]1(CC)C(=O)N=C(S)NC1=O`, the clearance was 3.02 mL/min/kg.
For `C[C@@H](CN(C)C)CN1c2ccccc2CCc2ccccc21`, the clearance was 15.9 mL/min/kg.
In the case of `CCCC(NC(C)C(=O)N1C(C(=O)O)C[C@@H]2CCCC[C@H]21)C(=O)O` (stereo partly specified), the clearance is 10.9 mL/min/kg.
As to `CC(C)[C@@H](C)[C@@]1(C)CC[C@]2(C)[C@H]3CC[C@@H]4[C@@]5(COC[C@@]4(C)[C@@H](OC[C@](C)(N)C(C)(C)C)[C@H](n4ncnc4-c4ccncc4)C5)C3=CC[C@@]2(C)C1C(=O)O` (stereo partly specified), the Vd was 10 L/kg, the half-life was 20 h and the free fraction (fraction unbound) is 0.01.
Take `COC(=O)C1=C(C)NC(C)=C(C(=O)OC(C)C)[C@H]1c1cccc2nonc12`: the clearance is 9.52 mL/min/kg.
Consider `CO[C@]1(NC(=O)CSCC#N)C(=O)N2C(C(=O)O)=C(CSc3nnnn3C)CS[C@H]21`, for which the clearance is 1.84 mL/min/kg.
On to `CCOC(=O)Nc1c[n+](N2CCOCC2)no1`, for which the clearance was 9.52 mL/min/kg.
In the case of `CCN(CC)CC#CCOC(=O)[C@](O)(c1ccccc1)C1CCCCC1`, the clearance is 8.1 mL/min/kg.
On to `Fc1ccc([C@H]2CCNC[C@@H]2COc2ccc3c(c2)OCO3)cc1`, for which the clearance is 6.8 mL/min/kg.
`CN1CCN2c3ncccc3Cc3ccccc3[C@@H]2C1`: the clearance is 8.25 mL/min/kg.
Consider `CCCC[C@](C)(O)C/C=C\[C@H]1C(CCCCCCC(=O)OC)C(=O)C[C@@H]1O` (stereo partly specified), for which the clearance was 240 mL/min/kg.
As for `CN[C@H]1CC[C@H](c2ccc(Cl)c(Cl)c2)c2ccccc21`, the clearance was 38 mL/min/kg.
As for `O=C(O)CCC(NC(=O)NC(CCCCNC(=O)c1ccc([18F])nc1)C(=O)O)C(=O)O` (stereo unspecified), the half-life is 3.47 h.
Turning to `CC(C)[N+](C)(CCOC(=O)C1c2ccccc2Oc2ccccc21)C(C)C`, the clearance was 18.9 mL/min/kg.
Regarding `CCNC[C@H](O)c1ccc(O)cc1`, the clearance is 13.6 mL/min/kg.
Regarding `CCC[C@H]1CC(C(=O)N[C@@H]([C@H]2O[C@@H](SC)[C@H](O)[C@@H](O)[C@@H]2O)[C@H](C)O)N(C)C1` (stereo partly specified), the clearance was 1.98 mL/min/kg.
Consider `C[C@@H]1c2cccc(O)c2C(=O)C2=C(O)[C@]3(O)C(=O)C(C(N)=O)=C(O)[C@H](N(C)C)[C@H]3[C@H](O)[C@H]21`, for which the clearance was 0.52 mL/min/kg.
`Cc1ccccc1OC[C@@H](O)CNCCOc1ccc(C(N)=O)cc1`: the clearance is 10.8 mL/min/kg.
Consider `CCc1ccc(CCOc2ccc(Cc3sc(=O)[nH]c3O)cc2)nc1`, for which the clearance is 1.43 mL/min/kg.
For the compound `Cc1cc2c(s1)Nc1ccccc1N=C2N1CCN(C)CC1`, the clearance is 5.81 mL/min/kg, the half-life was 43.5 h and the free fraction (fraction unbound) was 0.07.
For the compound `C[C@@H]1COc2c(N3CCN(C)CC3)c(F)c(C(=O)O)c3c(=O)ccn1c23`, the clearance was 3.5 mL/min/kg.
On to `Nc1nc2c(ncn2CCC(CO)CO)c(=O)[nH]1`, for which the clearance was 9.36 mL/min/kg.
For `CC(C)(Oc1ccc(CCNC(=O)c2ccc(Cl)cc2)cc1)C(=O)O`, the clearance is 1.67 mL/min/kg.
On to `COP(=O)(OC)[C@H](O)C(Cl)(Cl)Cl`, for which the clearance was 5.67 mL/min/kg.
Consider `CC(=O)OCC1=C(C(=O)O)N2C(=O)C(NC(=O)CSc3ccncc3)[C@@H]2SC1` (stereo partly specified), for which the clearance was 6.36 mL/min/kg.
`O=C(O)C1=C(CSc2nnnn2CS(=O)(=O)O)CS[C@H]2C(NC(=O)C(O)c3ccccc3)C(=O)N12` (stereo partly specified): the clearance was 0.33 mL/min/kg.
Take `CN(C[C@H](O)CO)C(=O)c1c(I)c(NC(=O)C(CO)CO)c(I)c(C(=O)N(C)C[C@H](O)CO)c1I`: the clearance is 1.33 mL/min/kg.
Take `C[C@H](CC(c1ccccc1)c1ccccc1)NC(C)(C)C`: the clearance was 0.95 mL/min/kg.
Consider `COC(=O)C(c1ccccc1)C1CCCCN1C(=O)OC[n+]1cccc(C(=O)NC(CO)C(=O)[O-])c1` (stereo unspecified), for which the volume of distribution (Vd) was 29.3 L/kg, the clearance is 60 mL/min/kg, the half-life was 5.7 h and the fraction unbound is 0.44.
In the case of `C1=C/COCc2cc(ccc2OCCN2CCCC2)Nc2nccc(n2)-c2cccc(c2)COC/1`, the distribution volume (Vd) was 3.82 L/kg, the clearance was 0.58 mL/min/kg, the half-life was 27.7 h and the fraction unbound was 0.01.
On to `Cc1ccc(C(=O)c2ccc(CC(=O)O)n2C)cc1`, for which the clearance is 1.3 mL/min/kg.
`NC(=O)c1ccc2c(c1O)[C@]13CCN(CC4CC4)[C@H](C2)[C@]1(O)CCC(=O)C3`: the clearance is 11.1 mL/min/kg, the half-life was 9 h and the unbound share (fraction unbound) is 0.72.
For the compound `C[C@H](CN1CCN(CCOCCO)CC1)CN1c2ccccc2Sc2ccccc21`, the clearance was 17.5 mL/min/kg.
With `COC(=O)C(c1ccccc1)[C@@H]1CCCCN1` (stereo partly specified), the clearance was 9.44 mL/min/kg.
Consider `COc1ccc2c3c1O[C@@H]1[C@@H](O)C=C[C@@H]4[C@H](C2)N(C)CC[C@]341`, for which the clearance was 11 mL/min/kg.
With `CN1CCC[C@@H]1c1cccnc1`, the clearance is 18.5 mL/min/kg.
As to `C[C@]12CC[C@@H]3C4=C(CC[C@H]3[C@@H]1CC[C@@H]2O)CC(=O)CC4`, the clearance is 26.7 mL/min/kg.
Consider `CN(C)CCC(c1ccccc1)c1ccccn1` (stereo unspecified), for which the clearance is 2.14 mL/min/kg.
